Assay results reported in patent publication US7754480B2, “Method of isolating stem cells” (Duke University, priority 1998, dated 2010).
Values belong to the compound of their own block, whether it stands above or below them.

What was measured:
[1] = tested on: MDR efflux pump in UCB cells; assay: Efflux of converted BAAA from UCB cells with or without verapamil; details: product of the ALDH conversion of BAAA
Experimental: When used, verapamil was included at 50 mM. After staining, the cells were washed with ice cold staining media and maintained on ice until their analysis and sorting. The cells were then resuspended in staining media with 10 mg/ml 7-aminoactinomycin D (7AAD) (Molecular Probes; Eugene, OR). For antibody staining to permit multiparameter analyses, the cells were resuspended in staining media (100 μl) and antibodies were added directly to the cell suspensions. The cells were incubated on ice for 20 min. and then washed again in ice cold staining media. The cells were then analyzed or sorted on a FAC Star Plus cell sorter (BDIS) equipped with dual Coherent I -90 argon-dye laser. […] Dead and dying cells were excluded on the basis of their high emission in the far red wavelength due to their uptake of 7AAD.
Since this reagent had never been previously characterized, the susceptibility of converted BAAA to MDR efflux was assayed. Although BODIPY aminoacetaldehyde passes through the cell membrane without active transport, the product of the ALDH conversion (BODIPY aminoacetate) might well be a substrate for the MDR pump.

[2] = tested on: ALDH in UCB cells; assay: BAAA staining of mononuclear umbilical cord blood (UCB) cells, flow cytometry; type: cell-based, human
Experimental: Human umbilical cord blood (UCB), intended for disposal, was collected into sterile bottles containing anticoagulant citrate buffer. The UCB used in these studies were processed within 24 hours of being harvested. White cells were enriched through a preliminary red cell agglutination where the UCB was diluted 1:2 with Dulbecco's phosphate buffered saline (PBS) at room temperature. These cells were then brought to a final concentration of 1% Hespan (DuPont Pharma, Wilmington, Del.) and were left to stand undisturbed for 1 hour. Non-agglutinated white blood cells were harvested and residual red cells were hemolysed at 37° C. in 0.17 M NH4Cl containing 10 mM Tris-HCl, pH 7.2 and […] EDTA. The recovered cells were washed in IMDM containing 2% FCS and mononuclear cells are then purified using Ficoll-Hypaque (1.077 g/ml). When held overnight, the cells were kept on ice in a 4° C. refrigerated room in IMDM with 20% FCS.
Mononuclear UCB cells were resuspended at 10^6 cells/ml in IMDM containing 2% FCS and were labeled with 1 μM BAAA for 30 min. When used, verapamil was included at […]. After staining, the cells were washed with ice cold staining media and maintained on ice until their analysis and sorting. The cells were then resuspended in staining media with […] 7-aminoactinomycin D (7AAD) (Molecular Probes; Eugene, OR). For antibody staining to permit multiparameter analyses, the cells were resuspended in staining media (100 μl) and antibodies were added directly to the cell suspensions. The cells were incubated on ice for 20 min. and then washed again in ice cold staining media. The cells were then analyzed or sorted on a FAC Star Plus cell sorter (BDIS) equipped with dual Coherent I -90 argon-dye laser. The BAAA was excited at 488 nm and emissions were detected using 515 DF20filter in FL1. Dead and dying cells were excluded on the basis of their high emission in the far red wavelength due to their uptake of 7AAD.
Umbilical Cord Blood (UCB) was chosen for its increasing promise as a source for transplantable hematopoietic stem cells. […]

[3] = tested on: ALDH in L1210/cpa cells; assay: BAAA staining of cyclophosphamide-resistant ALDH+ L1210/cpa cells, flow cytometry; type: cell-based, murine
Source text: (§1) FIGS. 1A-1D. BAAA staining identifies cells with high levels of ALDH activity. L1210/cpa is a derivative of the L1210 leukemic cell line that overexpresses ALDH. (FIGS. 1A and 1B represent L1210 cells, plus DEAB and minus DEAB, respectively; FIGS. 1C and 1D represent L1210/cpa cells, plus and minus DEAB, respectively).
(§2) K562, L1210 and L1210/cpa cells (ATCC) were maintained in suspension in RPMI 1640 media supplemented with 10% Fetal Calf Serum (FCS) and 5×10^−5 M β-mercaptoethanol.
(§3) To assay whether BAAA would permit the specific selection of ALDH^+ cells, studies initially determined an optimal response dose for the BAAA reagent in a murine cell line previously selected for cylophoshamide-resistance, L1210/cpa, that is known to be ALDH^+ (FIG. 1). The parental cell line, L1210 (FIGS. 1A and 1B) is cylophosphamide-sensitive and ALDH^−. […] In these studies, the BAAA could be used at a final concentration as low as 5 μM. This molar concentration is 10-fold lower than that used with the dansylated reagent.

[4] = tested on: human ALDH1 in K562 cells; assay: BAAA staining of K562 cells expressing ALDH1; type: cell-based
Experimental: as §2
Multiple different ALDH isoenzymes exist and these may display different abilities to convert BAAA. […] Therefore, a human cell line known to express ALDH1, K562, was assayed with this novel reagent.

[5] = tested on: human hematopoietic cells; assay: Preliminary DAAA staining of human hematopoietic cells, flow cytometry; type: cell-based; details: signal intensity too high in flow cytometry
Source text: Preliminary studies using DAAA indicate that this reagent is unusable on preparations of human hematopoietic cells because the signal intensity of the reagent is too high to resolve discrete cell populations by flow cytometry. The present invention provides a fluorescent ALDH substrate that is free of the problems associated with DAAA and that can be used in the purification of primitive human hematopoietic cells.

[6] = Stability of BODIPY aminoacetaldehyde diethyl acetal on storage and in 1 N HCl; type: physicochemical
Experimental: The aldehyde dehydrogenase substrate is prepared as BODIPY aminoacetaldehyde diethyl acetal and lyophilized in 0.5 micromole aliquots. […] The acetal is then solubilized in DMSO to a final concentration of 5 mM. […] To convert the acetal to an acetaldehyde, aliquots of this solution are brought to a final concentration of 1 N HCl. […] After 2 hours in 1 N HCl, the vast majority of the BODIPY aminoacetaldehyde diethyl acetal has converted to BODIPY aminoacetaldehyde (BAAA), and is then diluted to […] in Dulbecco's phosphate buffered saline (PBS). This stock is added directly to cells prepared in Iscove's Modified Dulbecco's Medium (IMDM) with 2% FCS at concentrations ranging from 1 to 5 μM.)(See also FIG. 6.).

[7] = Solubility and membrane permeability of the aldehyde reagent (BAAA); type: physicochemical
Experimental: Due to the inherent instability of aldehydes in aqueous solution, the reagent is prepared and stored as an acetal. […] Intracellular fluorescence can be used to select cells.

[8] = tested on: L1210 cells; assay: BAAA staining of parental ALDH- L1210 cells, flow cytometry; type: cell-based, murine; details: cyclophosphamide-sensitive parental L1210
Source text: as §1, §2, §3

SMILES: CC1=CC(C)=[N+]2C1=Cc1ccc(CCC(=O)NCC(=O)O)n1[B-]2(F)F [BODIPY Aminoacetate, BODIPY aminoacetate]
substrate status for the MDR efflux pump [1]: Substrate for the MDR Efflux Pump

SMILES: CCN(CC)c1ccc(C=O)cc1 [DEAB, diethylbenzaldehyde, reference compound]
inhibition of the BAAA response ([2]; excess DEAB, UCB cells): inhibited
block of the BAAA fluorescent response ([3]; 10-fold molar excess of DEAB, L1210/cpa): totally blocked
inhibition of the BAAA response [4]: entirely inhibited

SMILES: CN(C)c1cccc2c(S(=O)(=O)NCC=O)cccc12 [DAAA, dansyl aminoacetaldyde]
usability for resolving discrete cell populations [5]: unusable

stability of solution in DMSO ([6]; 5 mM in DMSO at 4° C.): up to 1 week
half life of the acetal ([6]; 1 N HCl, conversion to the acetaldehyde): 15 min
stability of lyophilized aliquots ([6]; lyophilized 0.5 micromole aliquots stored at -20° C.): stable indefinitely
SMILES: CCOC(CNC(=O)CCC1=[N+]2C(=Cc3c(C)cc(C)n3[B-]2(F)F)C=C1)OCC [BODIPY aminoacetaldehyde diethyl acetal]

solubility in PBS [7]: freely soluble
SMILES: Cc1cc(C)n2c1C=C1C=CC(CCC(=O)NCC=O)=[N+]1[B-]2(F)F [BAAA, BODIPY aminoacetaldehyde]
molar concentration relative to dansyl aminoacetaldehyde (fold lower) ([2]; 1 μM BAAA vs concentration of DAAA used for murine PHSC): 50 fold
optimal concentration for resolving ALDH^br subpopulations ([2]; UCB cells 10^6 cells/ml, IMDM 2% FCS): 1 µM
fluorescent response to BAAA [8]: essentially no response
molar concentration relative to the dansylated reagent (fold lower) ([3]; 5 μM BAAA vs dansylated reagent): 10 fold
detection of ALDH+ cells ([3]; L1210/cpa): able to detect ALDH^+ cells
lowest usable final concentration ([3]; continuous cell lines): 5 µM
conversion of BAAA / ALDH positivity [4]: positive for ALDH
